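A five-concentration, 48-hour dose response in 96-well plates underlies each endpoint, interpolated linearly between surrounding concentrations. GI50: concentration for 50% inhibition of growth. TGI denotes the concentration required for complete inhibition of growth.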
Assays:
Assay in all cases: DTP human tumour cell line panel, 48 h
A549 NSCLC = tested on: A549 NSCLC
DLD-1 colon = tested on: DLD-1 colon
HL-60(TB) leukemia = tested on: HL-60(TB) leukemia
LXFL 529 NSCLC = tested on: LXFL 529 NSCLC
OVCAR-3 ovarian = tested on: OVCAR-3 ovarian
RXF 393 renal = tested on: RXF 393 renal
SK-MEL-5 melanoma = tested on: SK-MEL-5 melanoma
HS 578T breast = tested on: HS 578T breast
MOLT-4 leukemia = tested on: MOLT-4 leukemia
NCI/ADR-RES ovarian = tested on: NCI/ADR-RES ovarian

In the case of `CCCCCCCCCCCCCC(=O)CSCCNC(=O)CCNC(=O)[C@@H](O)C(C)(C)COP(=O)(O)OP(=O)(O)OCC1OC(n2cnc3c(N)ncnc32)C(O)C1OP(=O)(O)O` (stereo not given in full), the TGI (A549 NSCLC) is reported as 45.9 µM, the TGI (DLD-1 colon) is reported as 41.1 µM and the TGI (HL-60(TB) leukemia) is reported as 51.4 µM. For the same molecule, the TGI (LXFL 529 NSCLC) was 32.5 µM, the TGI (OVCAR-3 ovarian) was over 100 µM and the TGI (RXF 393 renal) was 42.3 µM. For the same molecule, the TGI (SK-MEL-5 melanoma) was 34.5 µM.
Molecule `N#CN1CC[C@H](C(=O)Nc2cc3cc(C(N)=O)ccc3cn2)C1` has a GI50 (A549 NSCLC) of 0.527 µM, a TGI (A549 NSCLC) of over 100 µM and a GI50 (HL-60(TB) leukemia) of 0.109 µM. The TGI (HL-60(TB) leukemia) was 0.443 µM, the GI50 (HS 578T breast) was 0.0534 µM and the TGI (HS 578T breast) was 3.52 µM. The GI50 (MOLT-4 leukemia) was 0.0488 µM, the GI50 (NCI/ADR-RES ovarian) was 0.192 µM and the TGI (NCI/ADR-RES ovarian) was over 100 µM. The GI50 (OVCAR-3 ovarian) was under 0.0186 µM, the TGI (OVCAR-3 ovarian) was 0.206 µM and the GI50 (RXF 393 renal) was 0.0426 µM. It also gave a TGI (RXF 393 renal) of 0.21 µM, a GI50 (SK-MEL-5 melanoma) of 0.105 µM and a TGI (SK-MEL-5 melanoma) of 2.21 µM.
Molecule `Cn1c(=S)c2[nH]c(SCCN3C(=O)c4ccccc4C3=O)nc2n(C)c1=O` has a TGI (A549 NSCLC) of over 100 µM, a TGI (HL-60(TB) leukemia) of over 100 µM and a TGI (HS 578T breast) of over 100 µM. It also gave a TGI (MOLT-4 leukemia) of over 100 µM, a TGI (NCI/ADR-RES ovarian) of over 100 µM and a TGI (OVCAR-3 ovarian) of over 100 µM. For the same molecule, the TGI (RXF 393 renal) was over 100 µM and the TGI (SK-MEL-5 melanoma) was over 100 µM.
`Cc1ccc(-c2nc(-c3cn(C)c4ncccc34)cs2)cc1` was tested, and the GI50 (A549 NSCLC) was 5.62 µM, the TGI (A549 NSCLC) was 21.3 µM and the GI50 (HL-60(TB) leukemia) was 2.54 µM. The TGI (HL-60(TB) leukemia) was 26.2 µM, the GI50 (HS 578T breast) was 4.71 µM and the TGI (HS 578T breast) was 26.6 µM. The GI50 (MOLT-4 leukemia) was 4.24 µM, the TGI (MOLT-4 leukemia) was 30.3 µM and the GI50 (NCI/ADR-RES ovarian) was 1.42 µM. The TGI (NCI/ADR-RES ovarian) was 6.8 µM, the GI50 (OVCAR-3 ovarian) was 3.23 µM and the TGI (OVCAR-3 ovarian) was 11.3 µM. The GI50 (RXF 393 renal) was 2.99 µM, the TGI (RXF 393 renal) was 13.7 µM and the GI50 (SK-MEL-5 melanoma) was 3.7 µM. For the same molecule, the TGI (SK-MEL-5 melanoma) was 14.6 µM.
In the case of `Cc1c(C(N)=O)sc2c1c(=O)n(Cc1ccccc1)c1nnc(-c3ccc(Br)cc3)n21`, the GI50 (A549 NSCLC) is reported as 2.51 µM, the TGI (A549 NSCLC) is reported as 13.1 µM and the GI50 (HL-60(TB) leukemia) is reported as 4.42 µM. The TGI (HL-60(TB) leukemia) was 38.8 µM, the GI50 (HS 578T breast) was 5.2 µM and the TGI (HS 578T breast) was 54.9 µM. It also gave a GI50 (MOLT-4 leukemia) of 1.64 µM, a TGI (MOLT-4 leukemia) of 17.3 µM and a GI50 (NCI/ADR-RES ovarian) of 2.28 µM. The TGI (NCI/ADR-RES ovarian) was 11.2 µM, the GI50 (OVCAR-3 ovarian) was 2.48 µM and the TGI (OVCAR-3 ovarian) was 16.9 µM. For the same molecule, the GI50 (RXF 393 renal) was 1.81 µM, the TGI (RXF 393 renal) was 7.15 µM and the GI50 (SK-MEL-5 melanoma) was 1.47 µM. It also gave a TGI (SK-MEL-5 melanoma) of 4.89 µM.
`O=C(Nc1ccccc1O)c1ccc(NS(=O)(=O)c2cccc3cccnc23)cc1` showed a GI50 (A549 NSCLC) of 2.03 µM, a TGI (A549 NSCLC) of 9.02 µM and a GI50 (HL-60(TB) leukemia) of 1.03 µM. The TGI (HL-60(TB) leukemia) was 12.9 µM, the GI50 (HS 578T breast) was 0.787 µM and the TGI (HS 578T breast) was 11.8 µM. For the same molecule, the GI50 (MOLT-4 leukemia) was 1.21 µM, the TGI (MOLT-4 leukemia) was over 25 µM and the GI50 (NCI/ADR-RES ovarian) was 0.788 µM. The TGI (NCI/ADR-RES ovarian) was 5.96 µM, the GI50 (OVCAR-3 ovarian) was 1.42 µM and the TGI (OVCAR-3 ovarian) was 5.61 µM. The GI50 (RXF 393 renal) was 1.72 µM, the TGI (RXF 393 renal) was 5.81 µM and the GI50 (SK-MEL-5 melanoma) was 0.838 µM. It also gave a TGI (SK-MEL-5 melanoma) of 3.42 µM.
In the case of `CN(C)c1ccc(/C=c2/c3ccccc3n3c2c2cc(F)ccc2[n+]3C)cc1`, the GI50 (A549 NSCLC) is reported as 6.04 µM, the TGI (A549 NSCLC) is reported as 27.2 µM and the GI50 (HL-60(TB) leukemia) is reported as 0.954 µM. It also gave a TGI (HL-60(TB) leukemia) of over 100 µM, a GI50 (HS 578T breast) of 3.99 µM and a TGI (HS 578T breast) of 25.4 µM. It also gave a GI50 (MOLT-4 leukemia) of 8.63 µM, a TGI (MOLT-4 leukemia) of 27.5 µM and a GI50 (NCI/ADR-RES ovarian) of 48.4 µM. The TGI (NCI/ADR-RES ovarian) was over 100 µM, the GI50 (OVCAR-3 ovarian) was 2.98 µM and the TGI (OVCAR-3 ovarian) was 12.5 µM. The GI50 (RXF 393 renal) was 5.91 µM, the TGI (RXF 393 renal) was 21.8 µM and the GI50 (SK-MEL-5 melanoma) was 2.35 µM. It also gave a TGI (SK-MEL-5 melanoma) of 6.06 µM.
For `CCS(=O)(=O)c1ccc(OC)c(Nc2ncc(-c3ccccc3Cl)o2)c1`, the GI50 (A549 NSCLC) was 10 µM, the TGI (A549 NSCLC) was over 25 µM and the GI50 (HL-60(TB) leukemia) was 11.8 µM. It also gave a TGI (HL-60(TB) leukemia) of over 21.5 µM, a GI50 (HS 578T breast) of 11.5 µM and a TGI (HS 578T breast) of over 25 µM. For the same molecule, the GI50 (MOLT-4 leukemia) was 14.1 µM, the TGI (MOLT-4 leukemia) was over 25 µM and the GI50 (NCI/ADR-RES ovarian) was 8.03 µM. It also gave a TGI (NCI/ADR-RES ovarian) of over 25 µM, a GI50 (OVCAR-3 ovarian) of 9.38 µM and a TGI (OVCAR-3 ovarian) of over 25 µM. For the same molecule, the GI50 (RXF 393 renal) was 7.35 µM, the TGI (RXF 393 renal) was over 21.7 µM and the GI50 (SK-MEL-5 melanoma) was 7.4 µM. The TGI (SK-MEL-5 melanoma) was over 19.4 µM.
